From patent US20240165227A1, “ANTICANCER THERAPIES USING ANTI-CCR8 ANTIBODY, CHEMO AND IMMUNOTHERAPY COMBINATIONS” (Gilead Sciences, Inc., priority 2022, published 2024) come the findings set out here.

The subject of assay [1] is LLC (lung cancer). Briefly: LLC syngeneic mouse lung model, first study, tumor growth. Format: in vivo. As to conditions: single dose low dose docetaxel 5 mg/kg and/or anti-CCR8 antibody Q3D 1 mg/kg, FIG. 6. As to the method:
(§1) The ability of an anti-CCR8 antibody to augment tumor-specific effector T cell responses when paired with low-dose chemotherapy with or without an anti-PD-1 mAb was tested in vivo in different mouse syngeneic models, including 4T1 (breast cancer), Pan02 (pancreatic cancer), B16F10 (melanoma), LLC (lung cancer). 4T1 and Pan02 models are commonly understood to represent solid tumor models with strong immunosuppressive components. B16F10 and LLC are commonly viewed as cold tumor models.
(§2) The anti-CCR8 antibody used for the studies described herein is a mouse IgG2a isotype, and as described, e.g., by Campbell, J. R., et al. (2021). “Fc-Optimized Anti-CCR8 Antibody Depletes Regulatory T Cells in Human Tumor Models.” Cancer Res 81(11): 2983-2994. Isotype Control is a mouse IgG2a (BioXcell). Anti-PD-1 antibody is a mouse IgG1 antibody with D265A mutation.
A first study using the LLC model tested the relative antitumor activities of anti-CCR8 antibody and docetaxel administrations as single agents and in combination. Following inoculation, mice were randomized and grouped (n=8 animals per group) when tumors reached 80-120 mm^3 and administered a single dose of low dose docetaxel at 5 mg/kg (approximately 50% of most efficacious dose) and/or anti-CCR8 antibody Q3D at 1 mg/kg. A control group received an isotype control antibody.

Assay [2] concerns LLC (lung cancer). The experiment in a line: LLC syngeneic mouse lung model, second study (single, dual, triple combinations), tumor growth. The assay is classed as in vivo. The conditions noted are these: docetaxel 5 mg/kg, anti-CCR8 antibody Q3D 1 mg/kg, anti-PD-1 antibody Q3D 10 mg/kg, FIG. 7, FIG. 8. As to the method: as §1, §2
A second study using the LLC model tested the relative antitumor activities of anti-CCR8 antibody, anti-PD-1 antibody, and low dose docetaxel as single agents, dual combinations, and a triple combination. Following inoculation, mice were randomized and grouped (n=10 animals per group) when tumors reached 80-120 mm^3 and administered a single dose of docetaxel at 5 mg/kg, and/or anti-CCR8 antibody Q3D at 1 mg/kg, and/or anti-PD-1 antibody Q3D at 10 mg/kg. A control group received an isotype control antibody. […]

The next assay deals with B16F10 (melanoma). Briefly: B16F10 syngeneic mouse melanoma model, first study, tumor growth. The assay is classed as in vivo. The conditions noted are these: single dose low dose gemcitabine 15 mg/kg and/or anti-CCR8 antibody Q3D 1 mg/kg, FIG. 3. On the procedure: as §1, §2
A first study using the B16F10 model tested the relative antitumor activities of anti-CCR8 antibody and gemcitabine administrations as single agents and in combination. Following inoculation, mice were randomized and grouped (n=10 animals per group) when tumors reached 80-120 mm^3 and administered a single dose of low dose gemcitabine at 15 mg/kg (approximately 50% of most efficacious dose) and/or anti-CCR8 antibody Q3D at 1 mg/kg. A control group received an isotype control antibody. […] Tumors were collected at Day 5 post-dose. […]

In assay [3] the test system is tumor infiltrating lymphocytes from B16F10 tumors. Briefly: B16F10 model, flow cytometry of tumor infiltrating lymphocytes (Treg and CD8 frequency). The assay is classed as in vivo, mouse. The conditions noted are these: B16F10 tumors collected at Day 5 post-dose, FIG. 4B. The text has this:
FIG. 4A and FIG. 4B show bar charts illustrating tumor infiltrating lymphocytes from a syngeneic mouse melanoma model (B16F10). Mice were each administered with a single dose of a control antibody, gemcitabine (“low dose SOC chemo”) and/or an anti-CCR8 antibody, and frequencies of regulatory T-cells (Tregs; […]) or effector T-cells ([…]) were quantified. T test results are shown, wherein **** is p<0.0001, *** p<0.001, ** is p<0.01 and * is p<0.1.
A first study using the B16F10 model tested the relative antitumor activities of anti-CCR8 antibody and gemcitabine administrations as single agents and in combination. Following inoculation, mice were randomized and grouped (n=10 animals per group) when tumors reached 80-120 mm^3 and administered a single dose of low dose gemcitabine at 15 mg/kg (approximately 50% of most efficacious dose) and/or anti-CCR8 antibody Q3D at 1 mg/kg. A control group received an isotype control antibody. […] Tumors were collected at Day 5 post-dose. […] Briefly, tumors were dissociated and prepared for flow cytometry staining. Cells were stained as follows: L/D, CD45, CD3, CD4, CD8, CD25, FoxP3. Samples were acquired on flow cytometer and data generated was used to determine Treg frequency (L/D negative, CD45 positive, CD3 positive, CD4 positive, CD25 positive, FoxP3 positive) and CD8 frequency (L/D negative, CD45 positive, CD3 positive, CD8 positive).

Consider `CC(=O)O[C@@]12CO[C@@H]1C[C@H](O)[C@@]1(C)C(=O)[C@H](O)C3=C(C)[C@@H](OC(=O)[C@H](O)[C@@H](NC(=O)OC(C)(C)C)c4ccccc4)C[C@@](O)([C@@H](OC(=O)c4ccccc4)[C@H]21)C3(C)C` [docetaxel], for which the results for the tumor growth inhibition result in the assay on LLC (lung cancer) [1] and with LLC (lung cancer) [2] were “did not result in substantial tumor growth inhibition” and “Partial tumor growth inhibition”, respectively.
For `Nc1ccn([C@@H]2O[C@H](CO)[C@@H](O)C2(F)F)c(=O)n1` [gemcitabine], in the assay on B16F10 (melanoma), the tumor growth inhibition result is given as “did not result in substantial tumor growth inhibition”. Moreover, in assay [3], the “CD8+ T-cell infiltration in the tumors (CD8 frequency)” value is listed as “significant CD8+ T-cell infiltration”.
